# Experimental data: patent publication US8338475B2, “Anti-proliferative pharmaceutical composition” (BioCis Pharma Oy, priority 2003, dated 2012)
# How the values were obtained:
# Assay type in all cases: cell-based, human
# [1] = test system: A2058 (cutaneous melanoma); assay: Proliferation assay (CellTiter 96), A2058 cells
# Method: The cells were cultured in triplicate with or without 2 μM camptothecin (CPT) or 10 mM cis-UCA in a density of 15,000 cells per […]. A, Cells taken from normal pH 7.4 cultures to test conditions at pH 6.5. B, Cells cultured in low pH 6.7 adaptation medium for 3 d, then tested at pH 6.5. C, Cells cultured and tested at pH 7.4.
# Proliferation was measured in a 44-h assay at pH 6.5 with 30 μM to 30 mM cis-UCA and 2 μM camptothecin. Both proliferation (A) and calculated percentage inhibition data (B) are presented.
# (§1) Transformed tumour cell lines WM 266-4 and A2058 (cutaneous melanoma), HT-1080 (epithelial fibrosarcoma), HeLa (epithelial adenocarcinoma of cervix), HK293 (kidney epithelial cells) and non-transformed cell line HSF (skin fibroblast from a healthy volunteer donor) of human origin have been described earlier (Li et al. 2003). The K562 (chronic myelogenous leukemia) cells were purchased from American Type Culture Collection.
# (§2) The cells were maintained in logarithmic growth phase in IMDM medium (Invitrogen, Paisley, UK) supplemented with 10% fetal calf serum and antibiotics in a humidified incubator at +37° C., 5% CO2. The adherent cells lines were harvested for experiments with 0.25% trypsin-EDTA in PBS for 5 min and then resuspended and washed in medium. After counting of viable cells, 15,000 to 75,000 cells were transferred into flat-bottom 96-well cell culture plates in a volume of 100 or 150 μl.
# (§3) The proliferation activity of cultured cell lines was quantified in flat-bottom 96-well plates with a modified colorimetric assay based on a tetrazolium derivative (CellTiter 96 Aqueous One Solution Cell Proliferation Assay, Promega). The cells were cultured in the presence of camptothecin and/or cis-UCA for 20 to 92 h, then the proliferation reagent was added for 2 h, and the absorbance at 490 nm was measured in a plate reader. Blank absorption values in wells containing medium without cells were subtracted before comparison analysis.
# The cell lines were tested in a 44-h culture at pH 6.5 with or without 2 μM camptothecin and 10 mM cis-UCA at 15,000 cells per 100 μl total volume. […] In order to further characterise the effective anti-proliferative concentration range of cis-UCA, proliferation was measured in a 44-h assay at pH 6.5 with cis-UCA concentration ranging from 30 μM to 30 mM.
# [2] = test system: HT-1080 (epithelial fibrosarcoma); assay: Proliferation assay (CellTiter 96), HT-1080 cells; settings: pH 6.5, 44 h, cis-UCA 10 mM, CPT 2 μM, 15,000 cells per 100 μl
# Excerpt: as §1, §2
# as §3, with “Blank absorption values in wells containing medium without cells were subtracted before comparison analysis.” left out
# caspase-3 = assay: Determination of caspase-3 activity in A2058 melanoma cells; settings: 30 mM cis-UCA in pH 6.5 medium, at 2 h
# Method: The cells were allowed to attach to culture flasks at 5×10^6 cells per 7 ml of medium overnight. The medium was then changed to new medium adjusted to pH 6.5 with or without 30 mM cis-UCA. The cells were incubated for 30 min to 18 h, released with trypsin-EDTA, and lysed for caspase-3 assay. After subtracting the blank values, the mean caspase-3 activity from the cis-UCA-treated cells was divided by the mean value from the corresponding control cells with the same incubation time. The data are the mean±SD from three parallel reactions in the caspase-3 assay.
# Caspase-3 is a proteolytic enzyme that has a central role in the apoptotic cascade. The colorimetric assay is based on the hydrolysis of the peptide substrate acetyl-Asp-Glu-Val-Asp p-nitroanilide (Ac-DEVD-pNA) by caspase-3, resulting in the release of p-nitroaniline (pNA).
# Cells grown in normal medium were counted and divided into separate cell culture flasks containing 1 μM CPT, 10 mM cis-UCA, or both, in pH 6.5 medium. […] Caspase-3 activity was measured in cell lysates. […] After washing with ice-cold PBS, the counted cells were resuspend in cell lysis buffer (50 mM Hepes, pH 7.4, 5 mM CHAPS, and 5 mM dithiotreitol) in a density of 10^8 cells/ml, incubated on ice for 15-20 min, and the cell lysates pelleted at 15,000×g for 20 min at 4° C. […] Absorbance of the formed end product p-nitroaniline (pNA) was recorded at 405 nm after 2 and 17 h.
smiles,measurement,setting,value
"O=C(O)/C=C\c1c[nH]cn1 [cis-UCA, cis-urocanic acid]",percentage inhibition of proliferation,"[1]; 10 mM cis-UCA alone, cells from pH 7.4 cultures tested at pH 6.5, 92 h (FIG. 2A)",83%
same,percentage inhibition of proliferation,"[1]; 10 mM cis-UCA, cells adapted to pH 6.7 for 3 days, tested at pH 6.5, 92 h (FIG. 2B)",87%
same,concentration required to produce measurable inhibition of proliferation,"[1]; 44-h assay at pH 6.5, 30 μM to 30 mM tested (FIG. 3)",at least 3 mM
same,Inhibition of proliferation (mean percentage inhibition ± SD compared with untreated control),"[1]; pH 6.5, 44 h, cis-UCA 10 mM, CPT 2 μM, 15,000 cells per 100 μl",45 ± 4.4%
same,Inhibition of proliferation (mean percentage inhibition ± SD compared with untreated control),[2],47 ± 0.5%
same,peak caspase-3 activity compared to cells treated with pH 6.5 medium only,caspase-3,380%
